Measurements published in patent US7335722B2, “Peptides used as angiotensin converting enzyme inhibitor and preparation process thereof” (Food Industry Research and Development Institute, priority 1999, dated 2008).

System: ACE
Experiment: ACE inhibitory activity (IC50) of the isolated peptides, method not specified
Type: biochemical
Description: The five more apparent peaks in FIG. 4 are designated as A3-B4-C6-D1 to D5. The sequences of them are determined by sequence-determining machine. Five short-chain peptides, Val-Leu-Pro (VLP), Ilu-Leu-Pro (ILP), Val-Leu-Tyr (VLY), Val-Leu-Pro-Pro (VLPP) and Ilu-Leu-Pro-Pro (ILPP) are obtained. The ACE inhibitory activity of them (IC50) is determined.

| Substance | IC50 [µM] |
| --- | --- |
| Ilu-Leu-Pro-Pro (ILPP) | 172 |
| VLPP [Val-Leu-Pro-Pro] | 97 |
